Data taken from paper PMC8587475, “Black Bean (Phaseolus vulgaris L.) Polyphenolic Extract Exerts Antioxidant and Antiaging Potential” (Molecules, 2021).

Molecular target: T1, elastase from porcine pancreas (EC 3.4.21.36) (Sus scrofa, UniProt P00772)
T1 construct: gene CELA1; commercial native enzyme from porcine pancreas (Sigma-Aldrich), mature; docking model PDB 1BRU (elastase 2) is not the assay sample
Assay: N-succinyl-Ala-Ala-Ala-p-nitroanilide hydrolysis, absorbance at […] nm
Format: biochemical

T1 sequence (P00772 27-266): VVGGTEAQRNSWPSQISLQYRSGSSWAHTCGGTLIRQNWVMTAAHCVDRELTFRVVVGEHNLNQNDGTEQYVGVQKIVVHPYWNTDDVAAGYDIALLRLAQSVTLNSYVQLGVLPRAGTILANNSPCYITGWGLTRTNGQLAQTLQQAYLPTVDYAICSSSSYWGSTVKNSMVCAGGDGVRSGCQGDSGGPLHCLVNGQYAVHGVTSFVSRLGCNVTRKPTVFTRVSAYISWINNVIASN

IC50: 18.4 µM
Compound: Oc1cc(O)c2c(c1)OC(c1ccc(O)c(O)c1)C(O)C2 (racemic) [catechin]
